Holding throughout (assay): biochemical
Parameters in all cases: KINOMEscan competition binding panel (Eurofins DiscoverX), single concentration, % inhibition
Common to all, as to details: read-out: 7 at 1 µM % inhibition

The target of one test is T1, ABL1-phosphorylated (Homo sapiens, UniProt P00519).
T1 construct: phosphorylated
An outline of the steps: (§1)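 Kinome-wide profiling (KINOMEscan, >400 human kinases) was run at 1 µM compound.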

Another test addresses T2, CTK (Homo sapiens, UniProt P42679).
T2 construct: gene MATK
An outline of the steps: as §1

For a further test, the target named is EPHA5 (Homo sapiens, UniProt P54756). An outline of the steps: as §1
The target of a further test is EPHB1 (Homo sapiens, UniProt P54762). An outline of the steps: as §1
EPHB1, sequence (P54762 whole entry): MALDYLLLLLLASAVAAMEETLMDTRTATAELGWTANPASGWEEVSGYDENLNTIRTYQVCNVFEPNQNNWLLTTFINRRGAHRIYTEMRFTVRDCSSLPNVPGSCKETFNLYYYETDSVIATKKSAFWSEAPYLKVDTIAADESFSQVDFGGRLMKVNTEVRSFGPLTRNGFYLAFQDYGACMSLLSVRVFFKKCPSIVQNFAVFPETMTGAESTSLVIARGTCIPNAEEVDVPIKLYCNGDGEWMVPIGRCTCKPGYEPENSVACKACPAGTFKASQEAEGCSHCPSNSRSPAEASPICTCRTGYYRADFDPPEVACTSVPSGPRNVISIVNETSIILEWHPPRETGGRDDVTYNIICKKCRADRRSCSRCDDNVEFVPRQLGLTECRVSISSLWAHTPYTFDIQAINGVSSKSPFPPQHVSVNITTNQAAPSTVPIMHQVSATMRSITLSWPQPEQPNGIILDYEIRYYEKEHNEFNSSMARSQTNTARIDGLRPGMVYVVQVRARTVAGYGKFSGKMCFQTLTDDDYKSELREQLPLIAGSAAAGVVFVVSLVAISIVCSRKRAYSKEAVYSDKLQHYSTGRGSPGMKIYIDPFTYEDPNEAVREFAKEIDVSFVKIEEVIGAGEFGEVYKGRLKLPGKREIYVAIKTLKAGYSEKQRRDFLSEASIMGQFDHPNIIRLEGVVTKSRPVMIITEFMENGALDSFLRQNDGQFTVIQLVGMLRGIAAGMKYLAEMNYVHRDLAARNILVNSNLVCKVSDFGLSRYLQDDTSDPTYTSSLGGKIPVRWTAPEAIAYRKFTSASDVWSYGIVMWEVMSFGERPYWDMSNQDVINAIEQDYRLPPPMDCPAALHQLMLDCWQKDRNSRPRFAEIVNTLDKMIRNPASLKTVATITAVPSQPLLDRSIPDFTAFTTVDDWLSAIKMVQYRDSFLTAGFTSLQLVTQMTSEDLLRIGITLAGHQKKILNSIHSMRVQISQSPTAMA
The target in a further test is EPHB6 (Homo sapiens, UniProt O15197). An outline of the steps: as §1
EPHB6, sequence (O15197 whole entry): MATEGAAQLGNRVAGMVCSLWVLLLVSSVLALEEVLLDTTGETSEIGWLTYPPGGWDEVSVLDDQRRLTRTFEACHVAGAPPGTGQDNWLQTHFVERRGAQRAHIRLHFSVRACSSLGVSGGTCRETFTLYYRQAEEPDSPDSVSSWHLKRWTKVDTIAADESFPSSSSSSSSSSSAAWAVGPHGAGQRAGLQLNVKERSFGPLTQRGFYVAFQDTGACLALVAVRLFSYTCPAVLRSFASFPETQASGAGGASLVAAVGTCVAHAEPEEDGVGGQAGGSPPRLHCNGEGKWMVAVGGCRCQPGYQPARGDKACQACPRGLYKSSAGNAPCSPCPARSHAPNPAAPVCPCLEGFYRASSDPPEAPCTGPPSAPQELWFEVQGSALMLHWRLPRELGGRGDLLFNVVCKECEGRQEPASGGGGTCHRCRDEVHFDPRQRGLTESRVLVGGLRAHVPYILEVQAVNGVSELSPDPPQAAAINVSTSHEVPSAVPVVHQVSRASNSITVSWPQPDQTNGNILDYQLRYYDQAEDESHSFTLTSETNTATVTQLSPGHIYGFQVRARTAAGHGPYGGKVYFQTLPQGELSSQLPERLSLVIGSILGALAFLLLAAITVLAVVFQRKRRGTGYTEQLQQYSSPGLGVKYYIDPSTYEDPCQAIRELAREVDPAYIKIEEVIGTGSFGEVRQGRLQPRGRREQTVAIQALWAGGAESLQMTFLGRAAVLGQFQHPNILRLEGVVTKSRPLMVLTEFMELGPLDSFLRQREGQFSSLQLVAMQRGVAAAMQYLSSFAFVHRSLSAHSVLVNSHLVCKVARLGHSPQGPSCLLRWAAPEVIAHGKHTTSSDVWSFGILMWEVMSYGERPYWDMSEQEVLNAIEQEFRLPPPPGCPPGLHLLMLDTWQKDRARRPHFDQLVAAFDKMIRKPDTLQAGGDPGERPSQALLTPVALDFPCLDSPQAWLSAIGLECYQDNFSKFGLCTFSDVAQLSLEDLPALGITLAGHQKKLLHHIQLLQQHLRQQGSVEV
Another test addresses FLT3(R834Q) (Homo sapiens, UniProt P36888, R834Q). The gist of the method:
as §1

Test [1] concerns the target T3, JAK2(JH1domain-catalytic) (Homo sapiens, UniProt O60674).
T3 construct: JH1domain-catalytic
An outline of the steps:
as §1

Another test deals with MST1R (Homo sapiens, UniProt Q04912). The gist of the method: as §1
A further test deals with PIK3C2G (Homo sapiens, UniProt O75747). The gist of the method: as §1
A further test addresses PRKG1 (Homo sapiens, UniProt Q13976). The gist of the method:
as §1

A further test has as its target T4, PRP4 (Homo sapiens, UniProt Q13523).
T4 construct: gene PRPF4B
An outline of the steps:
as §1

The next test concerns the target ROCK1 (Homo sapiens, UniProt Q13464). The gist of the method:
as §1

In test [2] the target is T5, RSK1(Kin.Dom.2-C-terminal) (Homo sapiens, UniProt Q15418).
T5 construct: gene RPS6KA1; Kin.Dom.2-C-terminal
An outline of the steps: as §1

Another test addresses T6, S6K1 (Homo sapiens, UniProt P23443).
T6 construct: gene RPS6KB1
An outline of the steps: as §1

The next test addresses T7, TRKC (Homo sapiens, UniProt Q16288).
T7 construct: gene NTRK3
The gist of the method:
as §1

PRKG1, sequence (Q13976 whole entry): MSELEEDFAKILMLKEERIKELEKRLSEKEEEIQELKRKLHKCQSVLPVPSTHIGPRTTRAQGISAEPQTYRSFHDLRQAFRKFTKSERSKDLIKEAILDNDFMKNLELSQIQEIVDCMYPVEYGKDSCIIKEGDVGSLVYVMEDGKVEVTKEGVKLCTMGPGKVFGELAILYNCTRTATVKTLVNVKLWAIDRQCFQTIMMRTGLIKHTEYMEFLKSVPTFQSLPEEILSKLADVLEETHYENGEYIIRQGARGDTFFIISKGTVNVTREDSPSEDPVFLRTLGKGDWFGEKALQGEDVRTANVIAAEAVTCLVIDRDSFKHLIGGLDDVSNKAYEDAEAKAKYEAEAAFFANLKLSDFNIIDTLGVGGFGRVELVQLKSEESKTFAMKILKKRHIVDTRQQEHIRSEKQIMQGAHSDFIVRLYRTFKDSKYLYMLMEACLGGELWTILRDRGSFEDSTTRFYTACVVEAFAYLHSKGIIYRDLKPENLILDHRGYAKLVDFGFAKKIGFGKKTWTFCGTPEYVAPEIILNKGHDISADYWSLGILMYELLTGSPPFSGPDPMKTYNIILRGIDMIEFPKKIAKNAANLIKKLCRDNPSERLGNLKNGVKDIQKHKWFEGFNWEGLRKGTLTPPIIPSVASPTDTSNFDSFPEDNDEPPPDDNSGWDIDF
T7 sequence (Q16288 whole entry): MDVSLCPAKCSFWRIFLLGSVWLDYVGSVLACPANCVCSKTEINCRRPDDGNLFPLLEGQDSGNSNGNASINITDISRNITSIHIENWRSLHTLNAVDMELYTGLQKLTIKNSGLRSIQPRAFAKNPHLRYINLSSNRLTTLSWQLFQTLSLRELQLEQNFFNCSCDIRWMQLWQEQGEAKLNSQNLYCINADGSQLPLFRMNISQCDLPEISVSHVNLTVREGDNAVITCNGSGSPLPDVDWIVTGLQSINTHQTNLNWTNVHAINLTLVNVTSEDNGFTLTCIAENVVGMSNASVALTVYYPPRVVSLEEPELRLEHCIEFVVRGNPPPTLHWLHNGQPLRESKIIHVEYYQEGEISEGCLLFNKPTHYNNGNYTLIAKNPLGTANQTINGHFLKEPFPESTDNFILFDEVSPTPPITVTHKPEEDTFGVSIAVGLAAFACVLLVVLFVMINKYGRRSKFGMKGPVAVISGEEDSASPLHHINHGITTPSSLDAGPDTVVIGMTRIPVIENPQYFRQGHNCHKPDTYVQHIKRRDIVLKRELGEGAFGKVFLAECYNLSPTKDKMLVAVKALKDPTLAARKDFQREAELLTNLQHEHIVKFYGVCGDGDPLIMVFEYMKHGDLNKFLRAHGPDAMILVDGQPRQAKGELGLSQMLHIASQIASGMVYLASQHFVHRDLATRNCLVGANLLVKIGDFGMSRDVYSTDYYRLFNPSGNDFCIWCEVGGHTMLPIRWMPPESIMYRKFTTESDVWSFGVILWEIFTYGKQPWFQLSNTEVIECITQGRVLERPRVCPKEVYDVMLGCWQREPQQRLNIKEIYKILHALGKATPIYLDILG
T4 sequence (Q13523 whole entry): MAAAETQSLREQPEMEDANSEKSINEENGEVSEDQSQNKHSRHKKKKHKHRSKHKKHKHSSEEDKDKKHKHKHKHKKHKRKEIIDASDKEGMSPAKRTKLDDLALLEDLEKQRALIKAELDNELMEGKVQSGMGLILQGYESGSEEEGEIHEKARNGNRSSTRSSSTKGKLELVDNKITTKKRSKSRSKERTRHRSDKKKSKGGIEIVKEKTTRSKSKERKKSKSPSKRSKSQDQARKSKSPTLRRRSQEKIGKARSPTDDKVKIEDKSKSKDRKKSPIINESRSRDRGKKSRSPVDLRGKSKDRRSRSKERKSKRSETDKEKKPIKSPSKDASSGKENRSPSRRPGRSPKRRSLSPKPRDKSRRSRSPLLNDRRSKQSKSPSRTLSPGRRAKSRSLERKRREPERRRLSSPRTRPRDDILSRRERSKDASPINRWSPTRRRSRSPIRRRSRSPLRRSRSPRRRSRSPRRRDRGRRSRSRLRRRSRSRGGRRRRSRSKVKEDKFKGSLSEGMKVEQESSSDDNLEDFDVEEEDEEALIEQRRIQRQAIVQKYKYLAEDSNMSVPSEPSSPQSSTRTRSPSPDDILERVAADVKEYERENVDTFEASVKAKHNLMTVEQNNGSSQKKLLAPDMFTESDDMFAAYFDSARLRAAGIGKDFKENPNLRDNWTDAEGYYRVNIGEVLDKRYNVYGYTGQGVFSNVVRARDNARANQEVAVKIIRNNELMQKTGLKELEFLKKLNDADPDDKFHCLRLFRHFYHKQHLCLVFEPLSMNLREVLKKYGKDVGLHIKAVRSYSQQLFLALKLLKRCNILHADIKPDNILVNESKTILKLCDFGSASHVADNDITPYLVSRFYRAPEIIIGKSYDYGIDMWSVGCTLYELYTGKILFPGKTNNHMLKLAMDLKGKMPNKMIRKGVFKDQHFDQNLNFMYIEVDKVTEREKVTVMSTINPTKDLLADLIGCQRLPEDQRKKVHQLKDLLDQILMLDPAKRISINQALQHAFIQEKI
T6 sequence (P23443 whole entry): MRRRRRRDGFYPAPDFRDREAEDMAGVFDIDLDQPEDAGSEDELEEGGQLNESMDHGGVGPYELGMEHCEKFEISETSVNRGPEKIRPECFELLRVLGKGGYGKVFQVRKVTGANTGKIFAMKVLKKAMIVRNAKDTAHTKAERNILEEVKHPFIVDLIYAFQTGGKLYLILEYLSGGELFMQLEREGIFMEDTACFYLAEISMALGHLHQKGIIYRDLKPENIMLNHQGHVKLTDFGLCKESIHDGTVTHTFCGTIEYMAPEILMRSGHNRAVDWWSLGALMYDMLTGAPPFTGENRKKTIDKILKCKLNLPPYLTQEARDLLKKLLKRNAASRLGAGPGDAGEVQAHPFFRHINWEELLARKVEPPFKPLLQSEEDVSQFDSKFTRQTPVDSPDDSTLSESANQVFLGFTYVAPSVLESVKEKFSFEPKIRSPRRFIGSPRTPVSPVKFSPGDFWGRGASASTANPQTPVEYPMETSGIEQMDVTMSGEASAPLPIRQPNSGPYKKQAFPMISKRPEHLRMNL

Consider `CNS(=O)(=O)c1ccc(N(C)C)c(Nc2ncnc3cc(OC)c(OC)cc23)c1` [compound 7, 3-((6,7-dimethoxyquinazolin-4-yl)amino)-4-(dimethylamino)-N-methylbenzenesulfonamide], for which the inhibition at 1 µM on ABL1-phosphorylated amounted to 26%; at CTK, 1%; at EPHA5 it was 0%; at EPHB1, 0%; at EPHB6 it was 15%; at FLT3(R834Q) it was 31%. Moreover, the inhibition at 1 µM is 9% in test [1]; 3% at MST1R; 20% at PIK3C2G; 0% on PRKG1; 24% on PRP4; 1% at ROCK1. Further, the figures for the inhibition at 1 µM (in [2]; on S6K1; on TRKC) were 0%, 23% and 0%, respectively.

By inhibition is commonly meant how much of the control response was suppressed.

The record behind these values is PMC7180948, “New Insights into 4-Anilinoquinazolines as Inhibitors of Cardiac Troponin I–Interacting Kinase (TNNi3K)” (Molecules, 2020).
